# Source: paper PMC13267291, “In vivo functional profiling and structural characterization of the human GLP1R A316T variant” (Science Advances, 2026)
# Assays:
# [1] = tested on: SNAP/FLAG-hGLP1R^A316T versus ^WT; test: Nb37 bystander NanoBiT assay (plasma membrane and endosomal GLP-1R activity); format: cell-based, human; conditions: log(Emax/EC50), Fig. 8B,C; for Agonist-induced endosomal A316T activity versus WT: n = 4 (GLP-1), n = 3 (Ex-4)
# Experimental: Nb37 bystander NanoBiT assays
# INS-1 832/3 Glp1r-/- cells were seeded in 6-well plates and co-transfected with the following plasmids:
# 200 ng pSNAP/FLAG-hGLP1RWT or A316T, 500 ng Gαs (human, short isoform), 500 ng Gβ1 (human), 500 ng Gγ2 (human), 100 ng RIC8B (human, isoform 2), and either 100 ng LgBiT-CAAX (KRAS CAAX motif N-terminally fused with LgBiT) or 500 ng Endofin-LgBiT (Endofin FYVE domain C-terminally fused with LgBiT), plus 100 ng (plasma membrane assay) or 500 ng (endosomal assay) SmBiT-Nb37 [Nb37 cDNA synthesised by GenScript C- terminally fused to SmBiT with a 15 amino acid flexible linker (123) ] and adjusted for total DNA with pcDNA3.1 for the LgBiT-CAAX transfection. 24 hours after transfection, cells were exposed to NanoGlo Live Cell Reagent (Promega) with furimazine (1:20 dilution) and bioluminescence read in a Flexstation 3 plate reader for 8 min before and 30 min after stimulation by […]
# AUCs were calculated for each agonist concentration and fitted to log(agonist) versus response four-parameter curves using GraphPad Prism 10.1.2, with logEC50 (potency) and Emax (efficacy) calculated for each replicate dose response curve. Baseline endosomal over plasma membrane bioluminescence ratios were also calculated.
# GLP- 1R conformational ECD opening time resolved-fluorescence resonance energy transfer (TR- […]
# INS-1 832/3 Glp1r-/- SNAP/FLAG-hGLP1RWT or A316T cells were labelled with SNAP-Lumi4- Tb (Revvity; 40 nM, 60 min at 37°C in complete medium). After washing to remove unbound probe, cells were resuspended in HBSS ± 100 nM plasma membrane dye NR12A (a gift from Prof Andrey Klymchenko, University of Strasbourg, France) for 5 min before washing again. Labelled cells were transferred to 96-well half-area white plates and baseline TR-FRET signal from Lumi-4Tb (donor) and NR12A (acceptor) recorded for 5 min at 37°C using a Flexstation 3 plate reader with the following settings: λex = 335 nm, λem = 490 and 590 n m, delay 50 µs , integration time 300 µs. GLP-1 was then added at serial doses, and […]
# [2] = tested on: human GLP-1R A316T versus WT; test: Insulin secretion assay in mouse islets; format: cell-based; conditions: chow-fed mouse islets; 100 nM; 16 hours; n = 4; Fig. 5H
# Experimental: Purified mouse islets used for insulin secretion assays were treated in 24-well nonadherent plates. Eight islets were used per replicate with three technical replicates per condition. For acute studies, islets were preincubated for 1 hour in KRBH buffer containing 0.1% (w/v) bovine serum albumin (BSA) (10775835001, Roche) and 3 mM glucose before incubation with 11 mM glucose ± 100 nM GLP-1RAs or the GLP-1R antagonist exendin-9 in KRBH buffer in a shaking 37°C water bath (80 rpm) for 1 hour. For overnight studies, preincubation was carried out in RPMI 1640 medium containing FBS, P/S, and 3 mM glucose, followed by treatment with medium supplemented with 11 mM glucose ± GLP-1RAs for 16 hours. Supernatants containing secreted insulin were collected, centrifuged at 1000 rpm for 1 min, and transferred to fresh tubes. For total insulin content, islets were lysed using acidic ethanol (75% ethanol, 1.5 mM HCl). Lysates were sonicated 3× 10 s each in a water bath and centrifuged at 10,000g for 10 min, and supernatants were collected. For human islets, the same experiment was performed with islets previously transduced with pAV-SNAP/FLAG-hGLP1R^WT or ^A316T adenoviruses (generated by VectorBuilder) at a multiplicity of infection of 1, 24 hours before the start of experiments. Insulin secretion assays with the human EndoC-βH3 cell line were performed following 3 weeks of treatment with 4-hydroxytamoxifen as above, followed by transduction with pAV-SNAP/FLAG-hGLP1R^WT or ^A316T adenoviruses, with insulin secretion assessed as previously described ([54]), with the following modifications: After preincubation with 0.5 mM glucose KRBH buffer, cells were stimulated with 15 mM glucose ± exendin-4 for 60 min. Total and secreted insulin samples from islets and cells were stored at −20°C until quantification using an Insulin Ultra-Sensitive HTRF kit (#62IN2PEG, Revvity) in a PHERAstar plate reader (BMG Labtech), according to the manufacturer’s instructions.
Substance,"Plasma membrane activity, A316T versus WT [1]",Agonist-induced endosomal A316T activity versus WT [1],"Agonist-mediated increase in glucose-stimulated insulin secretion (fold over 11 mM glucose) following overnight exposure, A316T/A316T versus +/+ islets [2]"
GLP-1(7-36)NH2,without changes,tendency to be increased,
exendin-4,without changes,significantly reduced,complete loss of the potentiating effect
exendin-F1,,,no significantly detrimental effect
